Test results from patent US20090326031A1, “ANTIVIRAL USE OF CATIONIC SURFACTANT” (priority 2006, published 2009).

Tests used:
toxicological studies = format: in vivo; conditions: animals and humans
metabolism in rats = format: in vivo; conditions: eventually excreted as carbon dioxide and urea
Vaccinia virus = format: cell-based; conditions: LAE 200 ppm
[1] = test system: Bacillus subtilis ATCC 6633; assay: minimum inhibitory concentration; format: cell-based; conditions: Gram + Bacteria
Excerpt: (§1) This compound is remarkable for its inhibitory action over the proliferation of different microorganisms, such as bacteria, fungi and yeasts.

[2] = test system: Bacillus cereus var mycoide ATCC 11778; assay: minimum inhibitory concentration; format: cell-based; conditions: Gram + Bacteria
Excerpt: as §1

[3] = test system: Salmonella typhimurium ATCC16028; assay: minimum inhibitory concentration; format: cell-based; conditions: Gram − Bacteria
Excerpt: as §1

[4] = test system: Micrococcus luteus ATCC 9631; assay: minimum inhibitory concentration; format: cell-based; conditions: Gram + Bacteria
Excerpt: as §1

[5] = test system: Leuconostoc mesenteroides CETC 912; assay: minimum inhibitory concentration; format: cell-based; conditions: Gram + Bacteria
Excerpt: as §1

[6] = test system: Bordetella bronchiseptica ATCC 4617; assay: minimum inhibitory concentration; format: cell-based; conditions: Gram − Bacteria
Excerpt: as §1

[7] = test system: Chaetonium globosum ATCC 6205; assay: minimum inhibitory concentration; format: cell-based; conditions: Fungi
Excerpt: as §1

[8] = test system: Penicillium chrysogenum CECT 2802; assay: minimum inhibitory concentration; format: cell-based; conditions: Fungi
Excerpt: as §1

[9] = test system: Proteus mirabilis CECT 170; assay: minimum inhibitory concentration; format: cell-based; conditions: Gram − Bacteria
Excerpt: as §1

[10] = test system: Enterobacter aerogenes CECT 689; assay: minimum inhibitory concentration; format: cell-based; conditions: Gram − Bacteria
Excerpt: as §1

[11] = test system: Penicillium funiculosum CECT 2914; assay: minimum inhibitory concentration; format: cell-based; conditions: Fungi
Excerpt: as §1

[12] = test system: Staphylococcus aureus ATCC 6538; assay: minimum inhibitory concentration; format: cell-based; conditions: Gram + Bacteria
Excerpt: as §1

[13] = test system: Citrobacter freundii ATCC 22636; assay: minimum inhibitory concentration; format: cell-based; conditions: Gram − Bacteria
Excerpt: as §1

[14] = test system: Arthrobacter oxydans ATCC 8010; assay: minimum inhibitory concentration; format: cell-based; conditions: Gram + Bacteria
Excerpt: as §1

[15] = test system: Candida albicans ATCC 10231; assay: minimum inhibitory concentration; format: cell-based; conditions: Yeast
Excerpt: as §1

[16] = test system: Aureobasidium pullulans ATCC 9348; assay: minimum inhibitory concentration; format: cell-based; conditions: Fungi
Excerpt: as §1

Escherichia coli 0157H7 = assay: minimum inhibitory concentration; format: cell-based; conditions: Gram − Bacteria
Excerpt: as §1

[17] = test system: Escherichia coli ATCC 8739; assay: minimum inhibitory concentration; format: cell-based; conditions: Gram − Bacteria
Excerpt: as §1

[18] = test system: Pseudomonas aeruginosa ATCC 9027; assay: minimum inhibitory concentration; format: cell-based; conditions: Gram − Bacteria
Excerpt: as §1

[19] = test system: Klebsiella pneumoniae var pneumoniae CECT 178; assay: minimum inhibitory concentration; format: cell-based; conditions: Gram − Bacteria
Excerpt: as §1

[20] = test system: Mycobacterium phlei ATCC 41423; assay: minimum inhibitory concentration; format: cell-based; conditions: Gram + Bacteria
Excerpt: as §1

[21] = test system: Rhodotorula rubra CECT 1158; assay: minimum inhibitory concentration; format: cell-based; conditions: Yeast
Excerpt: as §1

[22] = test system: Listeria monocytogenes ATCC 7644; assay: minimum inhibitory concentration; format: cell-based; conditions: Gram + Bacteria
Excerpt: as §1

[23] = test system: Serratia marcenses CECT 274; assay: minimum inhibitory concentration; format: cell-based; conditions: Gram − Bacteria
Excerpt: as §1

[24] = test system: Alcaligenes faecalis ATCC 8750; assay: minimum inhibitory concentration; format: cell-based; conditions: Gram − Bacteria
Excerpt: as §1

[25] = test system: Lactobacillus delbrueckii ssp lactis CECT 372; assay: minimum inhibitory concentration; format: cell-based; conditions: Gram + Bacteria
Excerpt: as §1

[26] = test system: Aspergillus niger ATCC14604; assay: minimum inhibitory concentration; format: cell-based; conditions: Fungi
Excerpt: as §1

[27] = test system: Saccharomyces cerevisiae ATCC 9763; assay: minimum inhibitory concentration; format: cell-based; conditions: Yeast
Excerpt: as §1

[28] = test system: Gliocadium virens ATCC 4645; assay: minimum inhibitory concentration; format: cell-based; conditions: Fungi
Excerpt: as §1

[29] = test system: parainfluenza bovine type 3 strain SF-4 (ATCC VR-281); assay: activity of LAE against bovine parainfluenzae 3 virus (virus suspension, TCID50); format: cell-based; conditions: LAE 200 ppm
Experimental: (§2) In the following experiments the reduction factor has been calculated.
(§3) This reduction factor is calculated according to the following formula
(§4) R′ presents the reduction factor, v′ represents the volume of the sample of the test compound, a′ is the virus concentration in the added sample (^10log value), v″ is the volume of the final sample, a″ is the virus concentration after treatment (^10log value).
(§5) In the following experiments the clearance factor has been calculated. The clearance factor is calculated according to the following formula: […]
(§6) CL is the elimination factor (clearance factor), q′ is the initial concentration of virus (^10log value), q″ is the final concentration of virus (^10log value).
Eagle minimum essential medium (EMEM) was obtained from Earle (ICN Flow, Rf. 11-100-24), was supplemented with
10% of fetal bovine serum (Biowhittaker, Ref. D14-810F), […] of glutamine (Biowhittaker, Ref. 17-605E), non-essential amino acids (Biowhittaker, Ref. 13-114E), 100 units of penicillin, 100 μg of streptomycin/ml and 1 mM of sodium pyruvate. LAE (CAS 60372-77-2) Lot No. 10234 with a LAE Content of 88.7%.
The investigated strain of the parainfluenza bovine type 3 was SF-4 (ATCC VR-281).
(§7) LAE was investigated at a concentration of 200 ppm.
All experiments were performed at room temperature.
8 ml of deionized water was mixed with 1 ml of the virus suspension. 1 ml of LAE solution (containing 2000 ppm of LAE) was added, leading to a final LAE concentration of 200 ppm.
After 5 and 60 minutes samples for determination were taken. The design of the experiment allowed for conclusions of the effectivity of LAE after contact times of 5 and 60 minutes.
The number of virus particles in the experiment were determined by the quantitative assay TCID50 (infectious dose of cultured tissue).

[30] = test system: Clostridium perfringens ATCC 77454; format: cell-based; conditions: Gram + Bacteria
Herpes virus type 1 = assay: activity of LAE against Herpes virus type 1; format: cell-based, Herpes simplex virus; conditions: LAE 200 ppm
Experimental: as §2, §3, §4, §5, §6
The virus which was investigated was the type Simplex virus of the subfamily Alphaherpesvirinae in the family Herpesviridae.
The conditions for the determination are similarly chosen according to the ones of example 1.
as §7

CCCCCCCCCCCC(=O)N[C@@H](CCCN=C(N)N)C(=O)OCC.Cl [LAE, ethyl ester of the lauramide of the arginine monohydrochloride]
toxicity (toxicological studies): completely harmless to animals and humans
absorption and metabolism (metabolism in rats): fast absorption and metabolisation into naturally-occurring amino acids and the fatty acid lauric acid
Virus concentration 60 min after addition of LAE (Vaccinia virus; 10log value, before addition 5.94 ± 0.34): 2.40
living virus after treatment for 5 minutes (Vaccinia virus; 5 minutes): great reduction of the number of living microorganisms
Clearance factor (Vaccinia virus; 60 min contact, 10log values): 3.54 ± 0.34
Reduction factor (Vaccinia virus; 60 min contact, 10log values): 3.92 ± 0.36
living virus after treatment for 60 minutes (Vaccinia virus; 60 minutes): substantial decrease of the number of living Vaccinia virus organisms
M.I.C. [1]: 16 ppm
M.I.C. [2]: 32 ppm
M.I.C. [3]: 32 ppm
M.I.C. [4]: 128 ppm
M.I.C. [5]: 32 ppm
M.I.C. [6]: 128 ppm
M.I.C. [7]: 16 ppm
M.I.C. [8]: 128 ppm
M.I.C. [9]: 32 ppm
M.I.C. [10]: 32 ppm
M.I.C. [11]: 16 ppm
M.I.C. [12]: 32 ppm
M.I.C. [13]: 64 ppm
M.I.C. [14]: 64 ppm
M.I.C. [15]: 16 ppm
M.I.C. [16]: 16 ppm
M.I.C. (Escherichia coli 0157H7): 20 ppm
M.I.C. [17]: 32 ppm
M.I.C. [18]: 64 ppm
M.I.C. [19]: 32 ppm
M.I.C. [20]: 2 ppm
M.I.C. [21]: 16 ppm
M.I.C. [22]: 10 ppm
M.I.C. [23]: 32 ppm
M.I.C. [24]: 64 ppm
M.I.C. [25]: 16 ppm
M.I.C. [26]: 32 ppm
M.I.C. [27]: 32 ppm
M.I.C. [28]: 32 ppm
Clearance factor ([29]; 60 min contact, 10log values): ≧6.29 ± 0.32
Reduction factor ([29]; 60 min contact, 10log values): ≧6.46 ± 0.32
remaining virus after treatment for 60 minutes ([29]; 60 minutes): no remaining virus organisms were detected
Virus concentration 60 min after addition of LAE ([29]; room temperature, 10log value, TCID50, before addition 8.09 ± 0.33): ≦1.63
M.I.C. [30]: 16 ppm
Virus concentration 60 min after addition of LAE (Herpes virus type 1; 10log value, before addition 7.94 ± 0.37): ≦1.70
Clearance factor (Herpes virus type 1; 60 min contact, 10log values): ≧6.24 ± 0.37
Reduction factor (Herpes virus type 1; 60 min contact, 10log values): ≧6.18 ± 0.36
remaining virus after treatment for 60 minutes (Herpes virus type 1; 60 minutes): no remaining virus organisms were detected
